IC50 data for 31 compounds are collected here from patent publication US20080207705A1, “Heteroaryl-Imidazole Derivatives as Cannabinoid CB1 Receptor Antagonists” (Green Cross Corporation, priority 2007, published 2008).

T1 sequence (P20272 whole entry): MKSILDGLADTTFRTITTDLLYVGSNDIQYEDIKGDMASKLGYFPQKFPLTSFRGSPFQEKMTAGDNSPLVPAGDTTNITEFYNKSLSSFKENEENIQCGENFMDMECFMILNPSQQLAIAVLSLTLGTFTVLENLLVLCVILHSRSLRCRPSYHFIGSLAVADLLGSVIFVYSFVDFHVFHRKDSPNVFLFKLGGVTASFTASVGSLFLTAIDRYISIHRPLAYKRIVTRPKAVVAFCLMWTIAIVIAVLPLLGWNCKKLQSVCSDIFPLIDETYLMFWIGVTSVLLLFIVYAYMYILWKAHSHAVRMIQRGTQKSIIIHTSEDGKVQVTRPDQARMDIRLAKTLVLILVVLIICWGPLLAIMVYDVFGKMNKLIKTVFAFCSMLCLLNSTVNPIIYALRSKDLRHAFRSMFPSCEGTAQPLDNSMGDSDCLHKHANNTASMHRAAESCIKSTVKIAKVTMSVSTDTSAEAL

The first assay addresses T1, rat CB-1 receptor (Rattus norvegicus, UniProt P20272).
T1 construct: The tissue obtained from the brain of SD rats was homogenized; from tissue; host or cells: brain of SD rats (membrane pellet of homogenate)
Description: rat CB-1 receptor binding protocol with [3H]CP-55940.
Conditions: not given
Take `CC(C)(C)c1nnc(-c2nc(-c3ccc(Cl)cc3Cl)n(-c3ccc(Cl)cc3)c2C2CC2)s1` [Example 113, 2-tert-Butyl-5-(1-(4-chlorophenyl)-5-cyclopropyl-2-(2,4-dichlorophenyl)-1H-imidazol-4-yl)-1,3,4-thiadiazole]: the IC50 was 58 nM.

`CCc1c(-c2nnc(C3(c4ccc(Cl)cc4)CC3)o2)nc(-c2ccc(Cl)cc2Cl)n1-c1ccc(Br)cc1` [Example 40, 2-(1-(4-Bromophenyl)-2-(2,4-dichlorophenyl)-5-ethyl-1H-imidazol-4-yl)-5-(1-(4-chlorophenyl)cyclopropyl)-1,3,4-oxadiazole] showed a 50% inhibitory concentration (IC50) of 9.05 nM.

`CC(C)c1c(-c2nnc(C(C)(C)C)o2)nc(-c2ccc(Cl)cc2Cl)n1-c1ccc(Br)cc1` [Example 25, 2-(1-(4-Bromophenyl)-2-(2,4-dichlorophenyl)-5-isopropyl-1H-imidazol-4-yl)-5-tert-butyl-1,3,4-oxadiazole] gave an IC50 of 21.2 nM.

In turn, `CCc1c(-c2nnc(C3(C(F)(F)F)CCC3)s2)nc(-c2ccccc2Cl)n1-c1ccc(Br)cc1` [Example 147, 2-(1-(4-Bromophenyl)-2-(2-chlorophenyl)-5-ethyl-1H-imidazol-4-yl)-5-(1-(trifluoromethyl)cyclobutyl)-1,3,4-thiadiazole] showed a half-inhibitory concentration (IC50) of 5.33 nM.

For the compound `CCc1c(-c2nnc(C3(c4ccccc4)CC3)o2)nc(-c2ccc(Cl)cc2Cl)n1-c1ccc(Br)cc1` [Example 27, 2-(1-(4-Bromophenyl)-2-(2,4-dichlorophenyl)-5-ethyl-1H-imidazol-4-yl)-5-(1-phenylcyclopropyl)-1,3,4-oxadiazole], the IC50 was determined as 9.14 nM.

Staying with this assay, now noted: [3H]CP-55940, brain tissue of SD rats, 30 °C for 60 min; read-out: IC50.
Take `Cc1c(-c2nnc(C(C)(C)C)s2)nc(-c2ccc(Cl)cc2Cl)n1-c1ccc(Cl)cc1` [Example 90, 2-tert-Butyl-5-(1-(4-chlorophenyl)-2-(2,4-dichlorophenyl)-5-methyl-1H-imidazol-4-yl)-1,3,4-thiadiazole]: the IC50 worked out at 20.2 nM.

In the case of `Cc1c(-c2nnc(C3CCCCC3)s2)nc(-c2ccc(Cl)cc2Cl)n1-c1ccc(Cl)cc1` [Example 91, 2-(1-(4-Chlorophenyl)-2-(2,4-dichlorophenyl)-5-methyl-1H-imidazol-4-yl)-5-cyclohexyl-1,3,4-thiadiazole], the half-maximal inhibitory concentration (IC50) came out at 46 nM.

For the compound `Cc1c(-c2nnc(C3(c4ccc(Cl)cc4)CC3)s2)nc(-c2ccccc2Cl)n1-c1ccc(Br)cc1` [Example 144, 2-(1-(4-Bromophenyl)-2-(2-chlorophenyl)-5-methyl-1H-imidazol-4-yl)-5-(1-(4-chlorophenyl)cyclopropyl)-1,3,4-thiadiazole], the IC50 is 2.18 nM.

As to `Cc1c(-c2ncc(C(C)C)o2)nc(-c2ccc(Cl)cc2Cl)n1-c1ccc(Cl)cc1` [Example 183, 2-(1-(4-Chlorophenyl)-2-(2,4-dichlorophenyl)-5-methyl-1H-imidazol-4-yl)-5-isopropyloxazole], the IC50 was 26.4 nM.

Turning to `CCCC(C)c1nnc(-c2nc(-c3ccc(Cl)cc3Cl)n(-c3ccc(Cl)cc3)c2CC)s1` (stereo not shown) [Example 106, 2-(1-(4-Chlorophenyl)-2-(2,4-dichlorophenyl)-5-ethyl-1H-imidazol-4-yl)-5-(pentan-2-yl)-1,3,4-thiadiazole], the half-maximal inhibitory concentration (IC50) was found to be 12.9 nM.

`CCc1c(-c2nnc(C3(C(F)(F)F)CC3)s2)nc(-c2ccccc2Cl)n1-c1ccc(Br)cc1` [Example 146, 2-(1-(4-Bromophenyl)-2-(2-chlorophenyl)-5-ethyl-1H-imidazol-4-yl)-5-(1-(trifluoromethyl)cyclopropyl)-1,3,4-thiadiazole]: the half-inhibitory concentration (IC50) worked out at 11.5 nM.

For `Cc1c(-c2nnc(C(C)(C)C)s2)nc(-c2ccccc2Cl)n1-c1ccc(Br)cc1` [Example 141, 2-(1-(4-Bromophenyl)-2-(2-chlorophenyl)-5-methyl-1H-imidazol-4-yl)-5-tert-butyl-1,3,4-thiadiazole], the half-inhibitory concentration (IC50) amounted to 10.7 nM.

Take `CCc1c(-c2nnc(C3CCC3)o2)nc(-c2ccc(Cl)cc2Cl)n1-c1ccc(Cl)cc1` [Example 14, 2-(1-(4-Chlorophenyl)-2-(2,4-dichlorophenyl)-5-ethyl-1H-imidazol-4-yl)-5-cyclobutyl-1,3,4-oxadiazole]: the half-inhibitory concentration (IC50) came out at 34.1 nM.

Turning to `Cc1c(-c2ncc(C(C)C)s2)nc(-c2ccc(Cl)cc2Cl)n1-c1ccc(Cl)cc1` [Example 196, 2-(1-(4-Chlorophenyl)-2-(2,4-dichlorophenyl)-5-methyl-1H-imidazol-4-yl)-5-isopropylthiazole], the half-inhibitory concentration (IC50) stood at 16 nM.

As to `CC(C)c1c(-c2nnc(C3(c4ccccc4)CC3)s2)nc(-c2ccc(Cl)cc2Cl)n1-c1ccc(Br)cc1` [Example 116, 2-(1-(4-Bromophenyl)-2-(2,4-dichlorophenyl)-5-isopropyl-1H-imidazol-4-yl)-5-(1-phenylcyclopropyl)-1,3,4-thiadiazole], the IC50 turned out to be 5.66 nM.

As to `CCc1c(-c2nnc(C3(c4ccc(C)cc4)CC3)s2)nc(-c2ccc(Cl)cc2Cl)n1-c1ccc(Br)cc1` [Example 133, 2-(1-(4-Bromophenyl)-2-(2,4-dichlorophenyl)-5-ethyl-1H-imidazol-4-yl)-5-(1-p-tolylcyclopropyl)-1,3,4-thiadiazole], the IC50 worked out at 5.72 nM.

On to `Cc1c(-c2nnc(C(C)(C)C)s2)nc(-c2ccc(Cl)cc2Cl)n1-c1ccc(Br)cc1` [Example 109, 2-(1-(4-Bromophenyl)-2-(2,4-dichlorophenyl)-5-methyl-1H-imidazol-4-yl)-5-tert-butyl-1,3,4-thiadiazole], for which the 50% inhibitory concentration (IC50) was determined as 3.45 nM.

For the compound `CCc1c(-c2nnc(C3(c4ccccc4)CC3)s2)nc(-c2ccc(Cl)cc2Cl)n1-c1ccc(Br)cc1` [Example 117, 2-(1-(4-Bromophenyl)-2-(2,4-dichlorophenyl)-5-ethyl-1H-imidazol-4-yl)-5-(1-phenylcyclopropyl)-1,3,4-thiadiazole], the half-maximal inhibitory concentration (IC50) amounted to 8.29 nM.

As for `CCCC(C)c1nnc(-c2nc(-c3ccc(Cl)cc3Cl)n(-c3ccc(Cl)cc3)c2C)s1` (stereo not shown) [Example 96, 2-(1-(4-Chlorophenyl)-2-(2,4-dichlorophenyl)-5-methyl-1H-imidazol-4-yl)-5-(pentan-2-yl)-1,3,4-thiadiazole], the IC50 was found to be 12.7 nM.

For the compound `CCc1c(-c2nnc(C(C)(C)C)o2)nc(-c2ccccc2Cl)n1-c1ccc(Br)cc1` [Example 55, 2-(1-(4-Bromophenyl)-2-(2-chlorophenyl)-5-ethyl-1H-imidazol-4-yl)-5-tert-butyl-1,3,4-oxadiazole], the IC50 came out at 14.7 nM.

For `CCCc1c(-c2nnc(C3CCCCC3)o2)nc(-c2ccc(Cl)cc2Cl)n1-c1ccc(Br)cc1` [Example 30, 2-(1-(4-Bromophenyl)-2-(2,4-dichlorophenyl)-5-propyl-1H-imidazol-4-yl)-5-cyclohexyl-1,3,4-oxadiazole], the half-inhibitory concentration (IC50) was found to be 392 nM.

`CCc1c(-c2nnc(C3(C(F)(F)F)CC3)o2)nc(-c2ccc(Cl)cc2Cl)n1-c1ccc(Br)cc1` [Example 49, 2-(1-(4-Bromophenyl)-2-(2,4-dichlorophenyl)-5-ethyl-1H-imidazol-4-yl)-5-(1-(trifluoromethyl)cyclopropyl)-1,3,4-oxadiazole]: the IC50 was 16.7 nM.

For the compound `CC(C)c1c(-c2nnc(C3(c4ccccc4)CC3)o2)nc(-c2ccc(Cl)cc2Cl)n1-c1ccc(Br)cc1` [Example 26, 2-(1-(4-Bromophenyl)-2-(2,4-dichlorophenyl)-5-isopropyl-1H-imidazol-4-yl)-5-(1-phenylcyclopropyl)-1,3,4-oxadiazole], the concentration for half-maximal inhibition (IC50) is 10.3 nM.

As for `Cc1c(-c2nnc(C3CCCCC3)o2)nc(-c2ccc(Cl)cc2Cl)n1-c1ccc(Cl)cc1` [Example 2, 2-(1-(4-Chlorophenyl)-2-(2,4-dichlorophenyl)-5-methyl-1H-imidazol-4-yl)-5-cyclohexyl-1,3,4-oxadiazole], the half-inhibitory concentration (IC50) came out at 115 nM.

Turning to `Cc1c(-c2ncc(C3CCCCC3)o2)nc(-c2ccc(Cl)cc2Cl)n1-c1ccc(Cl)cc1` [Example 180, 2-(1-(4-Chlorophenyl)-2-(2,4-dichlorophenyl)-5-methyl-1H-imidazol-4-yl)-5-cyclohexyloxazole], the IC50 came out at 78.6 nM.

As for `CCCCC(C)c1nnc(-c2nc(-c3ccc(Cl)cc3Cl)n(-c3ccc(Cl)cc3)c2CC)o1` (stereo not shown) [Example 16, 2-(1-(4-Chlorophenyl)-2-(2,4-dichlorophenyl)-5-ethyl-1H-imidazol-4-yl)-5-(hexan-2-yl)-1,3,4-oxadiazole], the half-maximal inhibitory concentration (IC50) was 11.2 nM.

`CC(C)c1c(-c2nnc(C3(c4ccccc4)CC3)s2)nc(-c2ccc(Cl)cc2Cl)n1-c1ccc(Cl)cc1` [Example 118, 2-(1-(4-Chlorophenyl)-2-(2,4-dichlorophenyl)-5-isopropyl-1H-imidazol-4-yl)-5-(1-phenylcyclopropyl)-1,3,4-thiadiazole]: the half-inhibitory concentration (IC50) amounted to 7.54 nM.

`CCc1oc(-c2nc(-c3ccc(Cl)cc3Cl)n(-c3ccc(Cl)cc3)c2C)nc1C` [Example 192, 2-(1-(4-Chlorophenyl)-2-(2,4-dichlorophenyl)-5-methyl-1H-imidazol-4-yl)-5-ethyl-4-methyloxazole]: the half-inhibitory concentration (IC50) was determined as 77.9 nM.

With `CCCc1c(-c2nnc(C3(c4ccc(Cl)cc4)CCC3)o2)nc(-c2ccc(Cl)cc2Cl)n1-c1ccc(Br)cc1` [Example 34, 2-(1-(4-Bromophenyl)-2-(2,4-dichlorophenyl)-5-propyl-1H-imidazol-4-yl)-5-(1-(4-chlorophenyl)cyclobutyl)-1,3,4-oxadiazole], the IC50 stood at 9.05 nM.

Regarding `Clc1ccc(-n2c(-c3ccc(Cl)cc3Cl)nc(-c3nnc(C4(c5ccc(Cl)cc5)CC4)o3)c2Cn2cncn2)cc1` [Example 88, 2-(5-((1H-1,2,4-Triazol-1-yl)methyl)-1-(4-chlorophenyl)-2-(2,4-dichlorophenyl)-1H-imidazol-4-yl)-5-(1-(4-chlorophenyl)cyclopropyl)-1,3,4-oxadiazole], the concentration for half-maximal inhibition (IC50) was found to be 1.53 nM.

Consider `FC(F)(F)C1(c2nnc(-c3nc(-c4ccc(Cl)cc4Cl)n(-c4ccc(Br)cc4)c3Cn3cncn3)s2)CCC1` [Example 166, 2-(5-((1H-1,2,4-Triazol-1-yl)methyl)-1-(4-bromophenyl)-2-(2,4-dichlorophenyl)-1H-imidazol-4-yl)-5-(1-(trifluoromethyl)cyclobutyl)-1,3,4-thiadiazole], for which the IC50 was determined as 1.7 nM.

The IC50 is the concentration that inhibits the measured activity by half.
